# How the values were obtained:
# [1] = system: megakaryocyte cells (non-immortalized) derived from iPS cells (TkDA3-4); experiment: Platelet production of iPS cell (TkDA3-4)-derived megakaryocyte cells in absence of feeder cells, FACS; assay type: cell-based; conditions: 10 days, 1 μM C59, 3.3 μM TCS-359, 0.75 μM SR1
# Procedure: After culturing iPS cells (TkDA3-4), the colonies were detached with a cell scraper and cultured in differentiation medium on 10T1/2 feeder cells following the addition of […] of VEGF in accordance with Takayama, N., et al., Blood, 111, pp. 5298-5306, 2008. Fourteen days later, the cells were recovered using a cell scraper and cultured for 10 days in the absence of feeder cells following the addition of 25 U/mL of heparin, 10 μM Y-27632, 100 ng/ml of TPO and 50 ng/ml of SCF, and further adding 0.1% DMSO, 0.75 μM SR1, 1 μM C59 (Albiochem) or 3.3 μM TCS-359 (Santa Cruz Biotechnology, Inc.). Culturing was also carried out in the same manner using feeder cells. The resulting cells were suspended and the supernatant was harvested followed by analyzing by FACS after staining with anti-CD41a antibody and anti-CD42b antibody (FIG. 10).
# [2] = system: immortalized megakaryocyte cell line MKCL #12-23 cre2; experiment: Platelet production by immortalized megakaryocyte cell line, FACS of supernatant (anti-CD41a, anti-CD42b); assay type: cell-based, human; conditions: 10 μM, 3.3 μM, 1.1 μM and 0.4 μM compound, day 7, 6-well dish
# Procedure: Continuing, the effect of promoting platelet production was confirmed for 28 compounds from among the secondary candidate compounds excluding duplicate compounds and compounds that were unable to be used commercially. The above-mentioned immortalized megakaryocyte cell line was cultured in a 6-well dish in differentiation medium containing each of the compounds at concentrations of 10 μM, 3.3 μM, 1.1 μM and 0.4 μM, 10 μM Y-27632, 50 ng/ml of TPO and 50 ng/ml of SCF, differentiation medium containing 0.75 μM SR1, 10 μM Y-27632, 50 ng/ml of TPO and 50 ng/ml of SCF (positive control), or differentiation medium containing 0.1% DMSO, 10 μM Y-27632, 50 ng/ml of TPO and 50 ng/ml of SCF (negative control), followed by suspending the cells and harvesting the supernatant on day 7 of culturing and analyzing by FACS after staining with anti-CD41a antibody and anti-CD42b antibody. The relative number of platelets was calculated by correcting the number of platelets in the case of using each candidate compound with the number of platelets of the positive control (assigned a value of 100%) and the number of platelets of the negative control (assigned a value of 0%) (FIG. 9).
# [3] = system: TUBB1 expression (VENUS reporter) in immortalized megakaryocyte cell line MKCL #12-23 cre2; experiment: Secondary screening: VENUS fluorescence intensity in reporter immortalized megakaryocyte cell line at four concentrations; assay type: cell-based, human; conditions: 10 μM, 3.3 μM, 1.1 μM and 0.4 μM compound, day 7
# Procedure: Secondary screening consisted of seeding the immortalized megakaryocyte cell line obtained according to the method described above into a 96-well dish and culturing after adding 10 μM Y-27632, 50 ng/ml of TPO, 50 ng/ml of SCF and the primary candidate compounds at concentrations of 10 μM, 3.3 μM, 1.1 μM and 0.4 μM each. The cells were also cultured in differentiation medium containing 0.75 μM SR1, 10 μM Y-27632, 50 ng/ml of TPO and 50 ng/ml of SCF (positive control) or differentiation medium containing 0.1% DMSO, 10 μM Y-27632, 50 ng/ml of TPO and 50 ng/ml of SCF (negative control). On day 7 of culturing, the fluorescence intensity of VENUS in each compound group was measured with Array Scan VTI (Thermo Scientific), and the value of fluorescence intensity of each compound was corrected according to the fluorescence intensity of the positive control (assigned a value of 100%) and the fluorescence intensity of the negative control (assigned a value of 0%). […] The secondary candidate compounds consisted of 35 types of compounds, and included, for example, TCS-359 (CAS NO. 301305-73-7, Santa Cruz Biotechnology, Inc.) and C59 (CAS NO. 1243243-89-1).
# [4] = system: immortalized megakaryocyte cell line MKCL #12-23 cre2; experiment: Time course of VENUS expression and platelet number with or without SR1 on 10T1/2R feeder cells, FACS; assay type: cell-based, human; conditions: 0.75 μM SR1 with 10 μM Y-27632, TPO, SCF; day 0 to day 7
# Procedure: Continuing, the immortalized megakaryocyte cell line was cultured on 10T1/2R feeder cells in differentiation medium containing 50 ng/ml of TPO and 50 ng/ml of SCF or differentiation medium containing 0.75 μM SR1, 10 μM Y-27632, 50 ng/ml of TPO and 50 ng/ml of SCF, followed by suspending the cells and harvesting the supernatant on day 0, day 1, day 3, day 4, day 6 and day 7 of culturing and analyzing the cells by FACS after staining with anti-CD41a antibody and anti-CD42b antibody.
Compound,ability to produce platelets compared with SR1 [1],"relative number of platelets (positive control 0.75 μM SR1 = 100%, negative control 0.1% DMSO = 0%) [2]",concentration dependency of VENUS fluorescence intensity [3],expression level of VENUS [4],number of platelets produced [4]
Cc1cc(-c2ccc(CC(=O)Nc3ccc(-c4cccnc4)cc3)cc2)ccn1 [C59],equal to or greater than that of SR1,potent platelet inducer,concentration dependency was observed,,
COc1ccc(C(=O)Nc2sc3c(c2C(N)=O)CCCC3)cc1OC [TCS-359],equal to or greater than that of SR1,,concentration dependency was observed,,
"CC(C)n1cnc2c(NCCc3ccc(O)cc3)nc(-c3csc4ccccc34)nc21 [SR1, StemRegenin 1]",,,,confirmed to rise,confirmed to increase

# Source: US11977071B2, “Method for screening for platelet production promoters” (Kyoto University, priority 2016, dated 2024)
